According to ChEMBL document CHEMBL1201862, “PubChem BioAssay data set” (2004):
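In this assay, cells in 96-well plates receive the compound at five concentrations for 48 hours. Endpoints are linearly interpolated between the surrounding concentrations. GI50 marks 50% less growth.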 Calls of active or inactive are those of the source. Rule as the data show it: active = GI50 up to about 1.1 µM and inactive = higher.

Columns and labels:
Test in all cases: DTP human tumour cell line panel, 48 h
[1] = tested on: UACC-62
[2] = tested on: SNB-75
[3] = tested on: OVCAR-8
[4] = tested on: HCT-15
[5] = tested on: EKVX
[6] = tested on: HL-60
[7] = tested on: SW-620
[8] = tested on: DU-145
[9] = tested on: U-251
[10] = tested on: OVCAR-4
[11] = tested on: OVCAR-3
[12] = tested on: MDA-N
[13] = tested on: SNB-19
[14] = tested on: PC-3
[15] = tested on: OVCAR-5
[16] = tested on: A498
[17] = tested on: SR
[18] = tested on: UO-31
[19] = tested on: RXF 393
[20] = tested on: SF-539
[21] = tested on: NCI-H226
[22] = tested on: NCI/ADR-RES
[23] = tested on: LOX IMVI
[24] = tested on: SF-295
[25] = tested on: HOP-92
[26] = tested on: SN12C
[27] = tested on: CCRF-CEM
[28] = tested on: SK-MEL-2
[29] = tested on: RPMI-8226
[30] = tested on: 786-0
[31] = tested on: SK-MEL-28
[32] = tested on: SK-MEL-5
[33] = tested on: A549
[34] = tested on: HT-29
[35] = tested on: M14
[36] = tested on: Hs-578T
[37] = tested on: KM12
[38] = tested on: NCI-H460
[39] = tested on: TK-10
[40] = tested on: SK-OV-3
[41] = tested on: MDA-MB-435
[42] = tested on: NCI-H522
[43] = tested on: K562
[44] = tested on: NCI-H23
[45] = tested on: HCT-116
[46] = tested on: HCC 2998
[47] = tested on: UACC-257
[48] = tested on: MOLT-4
[49] = tested on: T47D
[50] = tested on: MCF7
[51] = tested on: Malme-3M
[52] = tested on: COLO 205
[53] = tested on: SF-268
[54] = tested on: MDA-MB-231
[55] = tested on: CAKI-1
[56] = tested on: IGROV-1
[57] = tested on: ACHN
[58] = tested on: HOP-62
[59] = tested on: BT-549

For Oc1cc(-c2ccccc2Cl)nc2cc3c(cc12)OCO3, the GI50 [1] was 0.0574 µM (active), the GI50 [2] was 30.7 µM (inactive) and the GI50 [3] was 0.198 µM (active). For the same molecule, the GI50 [4] was 0.0371 µM, the GI50 [5] was 0.155 µM (active) and the GI50 [6] was 0.0207 µM (active). For the same molecule, the GI50 [7] was 0.0698 µM (active), the GI50 [8] was 0.121 µM (active) and the GI50 [9] was 0.0736 µM (active). For the same molecule, the GI50 [10] was 2.76 µM (inactive), the GI50 [11] was 0.0608 µM (active) and the GI50 [12] was 0.0158 µM (active). The GI50 [13] was 0.144 µM (active), the GI50 [14] was 0.0451 µM (active) and the GI50 [15] was 1.09 µM (active). The GI50 [16] was 0.116 µM (active), the GI50 [17] was 0.0562 µM (active) and the GI50 [18] was 0.224 µM (active). The GI50 [19] was 0.0416 µM (active), the GI50 [20] was 0.103 µM (active) and the GI50 [21] was 0.13 µM (active). For the same molecule, the GI50 [22] was 0.0575 µM (active), the GI50 [23] was 0.0541 µM (active) and the GI50 [24] was 0.107 µM (active). The GI50 [25] was 0.102 µM (active), the GI50 [26] was 0.261 µM (active) and the GI50 [27] was 0.0422 µM (active). The GI50 [28] was 0.0719 µM (active), the GI50 [29] was 0.101 µM (active) and the GI50 [30] was 0.32 µM (active). The GI50 [31] was 0.0638 µM (active), the GI50 [32] was 0.0435 µM (active) and the GI50 [33] was 0.156 µM (active). The GI50 [34] was 0.0676 µM (active), the GI50 [35] was 0.11 µM (active) and the GI50 [36] was 0.44 µM (active). The GI50 [37] was 0.0486 µM (active), the GI50 [38] was 0.0719 µM (active) and the GI50 [39] was 0.731 µM (active). For the same molecule, the GI50 [40] was 0.17 µM (active), the GI50 [41] was 0.0146 µM (active) and the GI50 [42] was 0.0653 µM (active). The GI50 [43] was 0.0399 µM (active), the GI50 [44] was 0.122 µM (active) and the GI50 [45] was 0.0528 µM (active). The GI50 [46] was 0.144 µM (active), the GI50 [47] was 0.443 µM (active) and the GI50 [48] was 0.123 µM (active). For the same molecule, the GI50 [49] was 26.6 µM (inactive), the GI50 [50] was 0.0518 µM (active) and the GI50 [51] was 0.0598 µM (active). The GI50 [52] was 0.0507 µM (active), the GI50 [53] was 1.64 µM (inactive) and the GI50 [54] was 0.143 µM (active). The GI50 [55] was 0.0573 µM (active), the GI50 [56] was 0.173 µM (active) and the GI50 [57] was 0.731 µM (active). For the same molecule, the GI50 [58] was 0.132 µM (active).

For N=C(N)NCCCC(NC(=O)c1c2ccccc2nc2ccccc12)C(=O)O (stereo unspecified), the GI50 [1] was > 100 µM (inactive), the GI50 [2] was > 100 µM (inactive) and the GI50 [3] was > 100 µM (inactive). For the same molecule, the GI50 [4] was greater than 100 µM, the GI50 [5] was > 100 µM (inactive) and the GI50 [7] was > 100 µM (inactive). The GI50 [8] was > 100 µM (inactive), the GI50 [9] was > 100 µM (inactive) and the GI50 [10] was > 100 µM (inactive). For the same molecule, the GI50 [11] was > 100 µM (inactive), the GI50 [12] was > 100 µM (inactive) and the GI50 [13] was > 100 µM (inactive). The GI50 [14] was > 100 µM (inactive), the GI50 [15] was > 100 µM (inactive) and the GI50 [16] was > 100 µM (inactive). The GI50 [17] was > 100 µM (inactive), the GI50 [18] was > 100 µM (inactive) and the GI50 [20] was > 100 µM (inactive). For the same molecule, the GI50 [21] was > 100 µM (inactive), the GI50 [22] was > 100 µM (inactive) and the GI50 [23] was > 100 µM (inactive). For the same molecule, the GI50 [24] was > 100 µM (inactive), the GI50 [25] was > 100 µM (inactive) and the GI50 [26] was > 100 µM (inactive). The GI50 [27] was > 100 µM (inactive), the GI50 [28] was > 100 µM (inactive) and the GI50 [29] was > 100 µM (inactive). The GI50 [30] was > 100 µM (inactive), the GI50 [31] was > 100 µM (inactive) and the GI50 [32] was > 100 µM (inactive). For the same molecule, the GI50 [33] was > 100 µM (inactive), the GI50 [34] was > 100 µM (inactive) and the GI50 [35] was > 100 µM (inactive). The GI50 [37] was > 100 µM (inactive), the GI50 [38] was > 100 µM (inactive) and the GI50 [39] was > 100 µM (inactive). For the same molecule, the GI50 [40] was > 100 µM (inactive), the GI50 [41] was > 100 µM (inactive) and the GI50 [42] was > 100 µM (inactive). For the same molecule, the GI50 [43] was > 100 µM (inactive), the GI50 [44] was > 100 µM (inactive) and the GI50 [45] was > 100 µM (inactive). For the same molecule, the GI50 [46] was > 100 µM (inactive), the GI50 [47] was > 100 µM (inactive) and the GI50 [48] was > 100 µM (inactive). The GI50 [50] was > 100 µM (inactive), the GI50 [52] was > 100 µM (inactive) and the GI50 [53] was > 100 µM (inactive). The GI50 [54] was > 100 µM (inactive), the GI50 [55] was > 100 µM (inactive) and the GI50 [56] was > 100 µM (inactive). The GI50 [57] was > 100 µM (inactive), the GI50 [58] was > 100 µM (inactive) and the GI50 [59] was > 100 µM (inactive).

In the case of CC1CCC2CC1NC(=O)CCOCCC(=O)NC2(C)C (stereo unspecified), the GI50 [1] is reported as > 100 µM (inactive), the GI50 [2] is reported as > 100 µM (inactive) and the GI50 [3] is reported as > 100 µM (inactive). The GI50 [4] was greater than 100 µM, the GI50 [5] was > 100 µM (inactive) and the GI50 [6] was > 100 µM (inactive). For the same molecule, the GI50 [7] was > 100 µM (inactive), the GI50 [8] was > 100 µM (inactive) and the GI50 [9] was > 100 µM (inactive). For the same molecule, the GI50 [10] was > 100 µM (inactive), the GI50 [11] was > 100 µM (inactive) and the GI50 [12] was > 100 µM (inactive). The GI50 [13] was > 100 µM (inactive), the GI50 [14] was > 100 µM (inactive) and the GI50 [15] was > 100 µM (inactive). For the same molecule, the GI50 [17] was > 100 µM (inactive), the GI50 [18] was > 100 µM (inactive) and the GI50 [20] was > 100 µM (inactive). The GI50 [23] was > 100 µM (inactive), the GI50 [24] was > 100 µM (inactive) and the GI50 [25] was > 100 µM (inactive). For the same molecule, the GI50 [26] was > 100 µM (inactive), the GI50 [27] was > 100 µM (inactive) and the GI50 [30] was > 100 µM (inactive). For the same molecule, the GI50 [31] was > 100 µM (inactive), the GI50 [32] was > 100 µM (inactive) and the GI50 [33] was > 100 µM (inactive). For the same molecule, the GI50 [34] was > 100 µM (inactive), the GI50 [35] was > 100 µM (inactive) and the GI50 [37] was > 100 µM (inactive). The GI50 [38] was > 100 µM (inactive), the GI50 [39] was > 100 µM (inactive) and the GI50 [40] was > 100 µM (inactive). For the same molecule, the GI50 [41] was > 100 µM (inactive), the GI50 [42] was > 100 µM (inactive) and the GI50 [43] was > 100 µM (inactive). The GI50 [44] was > 100 µM (inactive), the GI50 [45] was > 100 µM (inactive) and the GI50 [46] was > 100 µM (inactive). The GI50 [47] was > 100 µM (inactive), the GI50 [48] was > 100 µM (inactive) and the GI50 [49] was > 100 µM (inactive). For the same molecule, the GI50 [50] was > 100 µM (inactive), the GI50 [52] was > 100 µM (inactive) and the GI50 [53] was > 100 µM (inactive). For the same molecule, the GI50 [54] was > 100 µM (inactive), the GI50 [56] was > 100 µM (inactive) and the GI50 [58] was > 100 µM (inactive). For the same molecule, the GI50 [59] was > 100 µM (inactive).
